Measured values reported in the NIST ThermoML archive (doi:10.1021/je501106d).

Conditions: for speed of sound: Brillouin scattering; for vapor or sublimation pressure: Closed cell (Static) method

CCCCCC [hexane]
speed of sound [m/s], Liquid
Conditions | 1000 kPa | 2500 kPa | 4000 kPa | 5500 kPa | 7000 kPa | 7500 kPa | 8500 kPa
300.15 K | 1080 | 1090 | 1102 | 1115 | 1129 | – | 1140
313.15 K | 1027 | 1038 | 1049 | 1062 | 1077 | – | 1092
328.15 K | 964.1 | 975.9 | 988.6 | 1002 | 1017 | – | 1032
343.15 K | 900.3 | 913.8 | 927.8 | 942.3 | 957.3 | – | 972.8
353.15 K | 857 | 872 | 887.1 | 902.5 | 918.1 | – | 934
363.15 K | 813.22 | 829.9 | 846.4 | 862.9 | 879.3 | – | 895.7
373.15 K | 768.8 | 787.4 | 805.6 | 823.4 | 840.9 | – | 857.9
383.15 K | 723.8 | 744.7 | 764.8 | 784.1 | 802.8 | – | 820.7
393.15 K | 678.3 | 701.6 | 723.8 | 744.9 | 765 | – | 783.9
403.15 K | 632.1 | 658.2 | 682.8 | 705.9 | 727.5 | – | 747.7
413.15 K | 585.4 | 614.5 | 641.7 | 667 | 690.4 | – | 711.9
423.15 K | 538.1 | 570.5 | 600.6 | 628.3 | 653.7 | – | 676.7
433.15 K | 490.1 | 526.2 | 559.3 | 589.7 | – | 617.3 | 642
443.15 K | – | 481.5 | 518 | 551.3 | 581.2 | – | 607.8
448.15 K | – | 459.1 | 497.4 | 532.1 | 563.3 | – | 590.9
453.15 K | – | 436.6 | 476.7 | 513 | 545.4 | – | 574.1
458.15 K | – | 414 | 456 | 493.9 | 527.7 | – | 557.4
463.15 K | – | 391.3 | 435.2 | 474.8 | 510.1 | – | 540.9
468.15 K | – | 368.5 | 414.5 | 455.8 | 492.5 | – | 524.5
473.15 K | – | 345.7 | 393.7 | 436.8 | 475 | – | 508.2
478.15 K | – | 322.8 | 372.9 | 417.9 | 457.6 | – | 492.1
483.15 K | – | – | 352.1 | 399 | 440.3 | – | 476.1
488.15 K | – | – | 331.3 | 380.1 | – | – | –
493.15 K | – | – | 310.5 | 361.3 | – | – | –
498.15 K | – | – | 289.6 | 342.5 | – | – | –
503.15 K | – | – | 268.8 | 323.7 | – | – | –
506.15 K | – | – | 256.2 | 312.5 | – | – | –

Conditions | speed of sound, Gas [m/s] | speed of sound, Liquid [m/s] | vapor or sublimation pressure, Liquid [kPa]
300.15 K | – | 1073 | 14
313.15 K | – | 993 | 63
328.15 K | – | 926.8 | 94
343.15 K | – | 882.7 | 122
353.15 K | – | 838.8 | 161
363.15 K | – | 794.9 | 214
373.15 K | – | 751 | 260
383.15 K | 178.6 | 707.2 | 331
393.15 K | 176.6 | 663.4 | 413
403.15 K | 174.3 | 619.5 | 512
413.15 K | 171.6 | 575.6 | 627
423.15 K | 168.3 | 531.6 | 762
433.15 K | 164.2 | 487.5 | 924
443.15 K | 159.4 | 443.1 | 1113
448.15 K | 156.6 | 420.7 | 1210
453.15 K | 153.5 | 398.2 | 1322
458.15 K | 150.1 | 375.6 | 1447
463.15 K | 146.4 | 352.8 | 1563
468.15 K | 142.2 | 329.8 | 1700
473.15 K | 137.6 | 306.4 | 1843
478.15 K | 132.5 | 282.6 | 1992
483.15 K | 126.9 | 258.2 | 2144
488.15 K | 120.6 | 233 | 2313
493.15 K | 113.4 | 206.4 | 2491
498.15 K | 105.3 | 177.3 | 2677
503.15 K | 95.91 | 142 | 2878
506.15 K | 89.34 | 109.7 | 2991

Cc1ccccc1 [toluene]
Liquid
Conditions | speed of sound [m/s]
323.15 K | 1200.8
423.15 K | 806
523.15 K | 425.5
